Assay results: US10414811B2, “Protease-resistant lipidated GLP-1 analogs” (MEDIMMUNE LIMITED, priority 2015, dated 2019)
Read-outs that look alike come from different tables or passages of the source.

Experiments:
Assay type in all cases: cell-based
[1] = target: T1, human GLP-1 receptor (GLP-1R) (Homo sapiens, UniProt P43220); assay: cAMP assay, human GLP-1R cells
T1 construct: expressed in transfected cells
Outline: (§1)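 Peptide-stimulated cAMP measured by two-step HTRF after a 30 min room-temperature incubation with receptor-expressing cells (hGLP-1R, hGIPR at 1×10^5 cells/ml; hGCGR at 2×10^5 cells/ml). Duplicate dilutions; EC50 from 4-parameter logistic fit of % Delta F.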

[2] = target: T2, human glucagon receptor (GCGR) (Homo sapiens, UniProt P47871); assay: cAMP assay, human GCGR cells
T2 construct: expressed in transfected cells
T2 sequence (P47871 26-477): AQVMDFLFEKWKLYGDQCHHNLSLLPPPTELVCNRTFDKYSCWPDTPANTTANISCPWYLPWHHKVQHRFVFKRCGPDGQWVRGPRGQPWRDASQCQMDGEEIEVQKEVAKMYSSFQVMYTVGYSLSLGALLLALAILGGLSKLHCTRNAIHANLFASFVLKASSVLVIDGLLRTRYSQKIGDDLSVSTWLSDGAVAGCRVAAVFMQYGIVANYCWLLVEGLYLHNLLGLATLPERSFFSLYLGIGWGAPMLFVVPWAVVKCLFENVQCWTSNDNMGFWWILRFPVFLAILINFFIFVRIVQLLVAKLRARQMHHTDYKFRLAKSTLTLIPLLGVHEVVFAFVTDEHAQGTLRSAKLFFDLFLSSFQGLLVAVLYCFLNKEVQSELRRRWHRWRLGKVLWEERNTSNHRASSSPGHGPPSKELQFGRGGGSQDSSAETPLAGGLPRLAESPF
Outline: as §1

[3] = target: T3, human glucose-dependent insulinotropic peptide receptor (GIPR) (Homo sapiens, UniProt P48546); assay: cAMP assay, human GIPR cells
T3 construct: expressed in transfected cells
T3 sequence (P48546 22-466): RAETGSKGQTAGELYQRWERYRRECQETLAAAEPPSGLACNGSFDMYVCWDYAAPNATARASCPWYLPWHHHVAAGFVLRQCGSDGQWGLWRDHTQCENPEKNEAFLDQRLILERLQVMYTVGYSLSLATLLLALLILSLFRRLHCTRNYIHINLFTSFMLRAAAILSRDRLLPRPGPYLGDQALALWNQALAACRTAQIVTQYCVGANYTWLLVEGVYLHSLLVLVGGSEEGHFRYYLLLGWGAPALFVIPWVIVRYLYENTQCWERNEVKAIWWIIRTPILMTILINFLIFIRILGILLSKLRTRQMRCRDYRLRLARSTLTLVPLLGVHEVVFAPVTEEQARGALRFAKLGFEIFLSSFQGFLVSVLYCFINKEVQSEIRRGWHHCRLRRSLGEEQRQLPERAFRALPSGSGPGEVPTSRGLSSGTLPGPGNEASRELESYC
Outline: as §1

GLP-1R (INS1e assay) = target: T4, GLP-1R (INS1e assay) (Rattus norvegicus, UniProt P32301); assay: INS1e assay, cAMP activity at GLP-1R; details: mono-lipidated peptides
T4 construct: endogenous in cells; host or cells: INS-1E cells
T4 sequence (P32301 22-463): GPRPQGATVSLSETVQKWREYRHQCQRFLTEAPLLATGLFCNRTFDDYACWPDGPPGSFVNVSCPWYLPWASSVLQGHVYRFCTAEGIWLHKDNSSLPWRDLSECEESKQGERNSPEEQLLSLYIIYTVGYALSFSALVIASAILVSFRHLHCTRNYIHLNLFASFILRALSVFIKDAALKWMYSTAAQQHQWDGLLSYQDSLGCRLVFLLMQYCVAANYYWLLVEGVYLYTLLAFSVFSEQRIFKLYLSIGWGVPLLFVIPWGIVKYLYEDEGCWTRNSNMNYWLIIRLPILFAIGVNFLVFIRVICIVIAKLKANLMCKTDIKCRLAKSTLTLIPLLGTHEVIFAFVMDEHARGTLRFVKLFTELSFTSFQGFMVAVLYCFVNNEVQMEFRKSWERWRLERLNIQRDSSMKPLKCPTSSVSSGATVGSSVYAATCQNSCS
Outline: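 cAMP was quantified by two-step HTRF, using anti-cAMP cryptate donor and cAMP-d2 acceptor, each diluted 1/20 in conjugate and lysis buffer. EC50 values of the synthetic peptides were derived from the cAMP readout.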

[4] = cAMP assay, first determination (n1), read-out: Primary assay EC50 GLP-1R n1
[5] = cAMP assay, second determination (n2), read-out: Primary assay EC50 GLP-1R n2
[6] = mean of n1 and n2, read-out: Mean pM GLP-1R
[7] = cAMP assay, first determination (n1), read-out: Primary assay EC50 Gluc-R (n1)
[8] = cAMP assay, second determination (n2), read-out: Primary assay EC50 Gluc-R (n2)
[9] = cAMP assay, first determination (n1), read-out: Primary assay EC50 GIP-R (n1)
[10] = cAMP assay, second determination (n2), read-out: Primary assay EC50 GIP-R (n2)
[11] = mean of n1 and n2, read-out: INS1e assay EC50 Mean pM GLP-1R
[12] = replicate n1, read-out: INS1e assay EC50 GLP-1R n1
[13] = replicate n2, read-out: INS1e assay EC50 GLP-1R n2

T1 sequence (P43220 24-463): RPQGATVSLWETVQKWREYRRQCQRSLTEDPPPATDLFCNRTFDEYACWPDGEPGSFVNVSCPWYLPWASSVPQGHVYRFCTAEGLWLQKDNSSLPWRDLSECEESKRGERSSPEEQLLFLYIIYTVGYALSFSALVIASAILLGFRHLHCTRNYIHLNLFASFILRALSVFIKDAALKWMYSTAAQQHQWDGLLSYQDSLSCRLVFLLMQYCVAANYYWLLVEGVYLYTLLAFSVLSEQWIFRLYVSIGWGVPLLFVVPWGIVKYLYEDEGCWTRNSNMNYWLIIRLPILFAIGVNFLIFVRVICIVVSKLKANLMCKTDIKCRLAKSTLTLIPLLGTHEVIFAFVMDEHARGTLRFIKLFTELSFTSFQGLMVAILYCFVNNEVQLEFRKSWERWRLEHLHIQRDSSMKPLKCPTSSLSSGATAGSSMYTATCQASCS

| EC50 [1, 4] [pM] | EC50 [1, 5] [pM] | EC50 [1, 6] [pM] | EC50 [2, 7] [nM] | EC50 [2, 8] [nM] | EC50 [3, 9] [nM] | EC50 [3, 10] [nM] | EC50 (GLP-1R (INS1e assay); [11]) [pM] | EC50 (GLP-1R (INS1e assay); [12]) [pM] | EC50 (GLP-1R (INS1e assay); [13]) [pM] | EC50 ([1]; first run (n1), cAMP activity, read-out: Primary assay EC50 GLP-1R n1) [pM] | EC50 ([1]; second run (n2), cAMP activity, read-out: Primary assay EC50 GLP-1R n2) [pM] | EC50 ([2]; first run (n1), cAMP activity of substituted and mono-lipidated peptides, read-out: Primary assay EC50 Gluc-R) [nM] | EC50 ([2]; second run (n2), cAMP activity, read-out: Primary assay EC50 Gluc-R) [nM] | EC50 ([3]; first run (n1), cAMP activity, read-out: Primary assay EC50 GIP-R) [nM] | EC50 ([3]; second run (n2), cAMP activity, read-out: Primary assay EC50 GIP-R) [nM] | Structure (SMILES) |
| --- | --- | --- | --- | --- | --- | --- | --- | --- | --- | --- | --- | --- | --- | --- | --- | --- |
| 3.5 | 2.5 | 3 | ≥ 26 | ≥ 26 | ≥ 26 | ≥ 26 | 37 | 52.6 | 21.5 | – | – | – | – | – | – | CCCCCCCCCCCC(=O)NCCOCCOCC(=O)NCCOCCOCC(=O)NCCOCCOCC(=O)NCCCC[C@H](NC(=O)[C@H](C)NC(=O)[C@H](C)NC(=O)[C@H](CCC(=O)O)NC(=O)CNC(=O)[C@H](CCC(=O)O)NC(=O)[C@H](CC(C)C)NC(=O)[C@](C)(Cc1ccccc1)NC(=O)[C@H](CO)NC(=O)[C@](C)(CO)NC(=O)[C@@H](NC(=O)[C@H](CC(=O)O)NC(=O)[C@H](CO)NC(=O)[C@@H](NC(=O)[C@](C)(Cc1ccccc1)NC(=O)[C@H](CO)NC(=O)CNC(=O)[C@H](CCC(=O)O)NC(=O)C(C)(C)NC(=O)[C@@H](N)Cc1c[nH]cn1)[C@@H](C)O)C(C)C)C(=O)N[C@@H](CCC(=O)O)C(=O)N[C@@](C)(Cc1ccccc1)C(=O)N[C@H](C(=O)N[C@@H](C)C(=O)N[C@@](C)(Cc1ccccc1)C(=O)N[C@H](C(=O)N[C@H](C(=O)N[C@@](C)(CCCCN)C(=O)NCC(=O)NCC(N)=O)C(C)C)C(C)C)[C@@H](C)CC [compound 136] |
| – | – | 20.8 | – | – | – | – | 144 | 114 | 173 | 30 | 12 | ≥ 27 | ≥ 27 | ≥ 27 | ≥ 27 | CCCCCCCCCCCCCCCCCC(=O)NCCOCCOCC(=O)NCCOCCOCC(=O)NCCCC[C@H](NC(=O)[C@@H](NC(=O)[C@@H](NC(=O)[C@](C)(Cc1ccccc1)NC(=O)[C@H](C)NC(=O)[C@@H](NC(=O)[C@](C)(Cc1ccccc1)NC(=O)[C@H](CCC(=O)O)NC(=O)[C@](C)(CCCCN)NC(=O)[C@H](C)NC(=O)[C@H](C)NC(=O)[C@H](CCC(=O)O)NC(=O)CNC(=O)[C@H](CCC(=O)O)NC(=O)[C@H](CC(C)C)NC(=O)[C@](C)(Cc1ccccc1)NC(=O)[C@H](CO)NC(=O)[C@](C)(CO)NC(=O)[C@@H](NC(=O)[C@H](CC(=O)O)NC(=O)[C@H](CO)NC(=O)[C@@H](NC(=O)[C@](C)(Cc1ccccc1)NC(=O)[C@H](CO)NC(=O)CNC(=O)[C@H](CCC(=O)O)NC(=O)C(C)(C)NC(=O)[C@@H](N)Cc1c[nH]cn1)[C@@H](C)O)C(C)C)[C@@H](C)CC)C(C)C)C(C)C)C(=O)NCC(=O)NCC(N)=O [compound 189] |
| 47 | 12 | 29.5 | ≥ 26 | ≥ 26 | ≥ 26 | ≥ 26 | 426 | 351 | 501 | – | – | – | – | – | – | CCCCCCCCCCCCCCCCCC(=O)N[C@@H](CCC(=O)N[C@@H](CCC(=O)N[C@@H](CCC(=O)NCCCC[C@H](NC(=O)[C@@H](NC(=O)[C@@H](NC(=O)[C@](C)(Cc1ccccc1)NC(=O)[C@H](C)NC(=O)[C@@H](NC(=O)[C@](C)(Cc1ccccc1)NC(=O)[C@H](CCC(=O)O)NC(=O)[C@](C)(CCCCN)NC(=O)[C@H](C)NC(=O)[C@H](C)NC(=O)[C@H](CCC(=O)O)NC(=O)CNC(=O)[C@H](CCC(=O)O)NC(=O)[C@H](CC(C)C)NC(=O)[C@](C)(Cc1ccccc1)NC(=O)[C@H](CO)NC(=O)[C@](C)(CO)NC(=O)[C@@H](NC(=O)[C@H](CC(=O)O)NC(=O)[C@H](CO)NC(=O)[C@@H](NC(=O)[C@](C)(Cc1ccccc1)NC(=O)[C@H](CO)NC(=O)CNC(=O)[C@H](CCC(=O)O)NC(=O)C(C)(C)NC(=O)[C@@H](N)Cc1c[nH]cn1)[C@@H](C)O)C(C)C)[C@@H](C)CC)C(C)C)C(C)C)C(=O)NCC(=O)NCC(N)=O)C(=O)O)C(=O)O)C(=O)O [compound 184] |
